According to PMC9154192 (PLoS Biology, 2022):
“And” between values parts separate entries of the source, which are not always exact repeats. Identical values can stand only once. Like-named read-outs stand apart in the source and are kept apart here.

Legend:
[1] = format: in vivo, Crl:CD SD rats; details: single oral dose up to 2,000 mg/kg, SD rats, 2 weeks
Method: Toxicity studies were conducted at Biotoxtech (Korea) under review and approval from IACUC (170842, 180144, 170889) of Biotoxtech. All animals used in the toxicity test were purchased from OrientBio (Korea).
For acute toxicity study with a single oral administration, 6-week-old Crl:CD SD rats were used. For PP1S, a total of 8 groups (n = 4 rats/group) were used (0, 500, 1,000, and 2,000 mg/kg for females and males, respectively). For PP2S, a total of 4 groups (n = 5 rats/group) were used (0 and 2,000 mg/kg for females and males, respectively). […] Corn oil (Sigma, USA) was used as the vehicle. Control animals were treated only with the same volume of the vehicle.

[2] = format: in vivo, female rats; design: unit not given here; details: for Plasma concentration, individual animals: female rats 1-6, single oral 100 mg/kg, 100 mg/kg; for Plasma concentration, Average: female rats, average of 6 animals
M. tuberculosis H37Rv [3] = format: in vivo, BALB/c mice; design: Efficacy in BALB/C mouse model of pulmonary tuberculosis, Average / Efficacy in BALB/C mouse model of pulmonary tuberculosis, values of mice 1-6: unit not given here
XDR M. tuberculosis = format: cell-based, Mycobacterium tuberculosis
M. tuberculosis H37Rv [4] = format: cell-based, Mycobacterium tuberculosis; details: for RFU/200 μl (replicates1-3), single values / RFU/ml (×104) / RFU/200 μl (average): Fig 2A
[5] = Acute oral toxicity test in mice; format: in vivo, BALB/c mice; details: single oral, 5 mice; for Deaths of mice, Days after dosing 0: day 0; for Deaths of mice, Days after dosing 1: day 1; for Deaths of mice, Days after dosing 2: day 2; for Deaths of mice, Days after dosing 3: day 3; for Deaths of mice, Days after dosing 4: day 4; for Deaths of mice, Days after dosing 5: day 5; for Deaths of mice, Days after dosing 6: day 6; for Deaths of mice, Days after dosing 7: day 7; for Deaths of mice, Days after dosing 8: day 8; for Deaths of mice, Days after dosing 9: day 9; for Deaths of mice, Days after dosing 10: day 10; for Deaths of mice, Days after dosing 11: day 11; for Deaths of mice, Days after dosing 12: day 12; for Deaths of mice, Days after dosing 13: day 13; for Deaths of mice, Days after dosing 14: day 14
Method: This experiment was conducted in a toxicity test at Soonchunhyang University's Animal Biological Safety Level 2 (ABSL-2) facility. The study protocol was reviewed and approved by Soonchunhyang University Animal Ethics Committee. Six-week-old female BALB/c were purchased from Koatech (Pyeongtaek, Korea) and five mice per group were tested. Drugs were orally administered once using a zonde and observed for two weeks. Corn oil (Sigma, USA) was used as the vehicle.

SMILES: CCCCOc1ccc2cc(CN3C(=O)CC[C@H]3C(=O)OC)c3cc(OC)c(OC)cc3c2c1 [PP2S, Methyl (S)-1-((3-butoxy-6,7-dimethoxyphenanthren-9-yl)methyl)-5-oxopyrrolidine-2-carboxylate]
- change in body weight compared to control group [1]: no significant change
- clinical symptoms and death [1]: not observed
- Plasma concentration, individual animals ([2]; 2 h): 237.59
- Plasma concentration, individual animals ([2]; 4 h): 316.47
- Plasma concentration, individual animals ([2]; 6 h): 323.47
- Plasma concentration, individual animals ([2]; 8 h): 253.32
- Plasma concentration, individual animals ([2]; 10 h): 217.50
- Plasma concentration, individual animals ([2]; 12 h): 210.07
- Plasma concentration, individual animals ([2]; 14 h): 174.31
- Plasma concentration, individual animals ([2]; 16 h): 211.29
- Plasma concentration, individual animals ([2]; 18 h): 122.20
- Plasma concentration, individual animals ([2]; 20 h): 116.07
- Plasma concentration, individual animals ([2]; 22 h): 87.81
- Plasma concentration, individual animals ([2]; 24 h): 63.19
- Plasma concentration, Average ([2]; single oral 100 mg/kg, 2 h): 320.00
- Plasma concentration, Average ([2]; single oral 100 mg/kg, 4 h): 432.00
- Plasma concentration, Average ([2]; single oral 100 mg/kg, 6 h): 276.00
- Plasma concentration, Average ([2]; single oral 100 mg/kg, 8 h): 154.00
- Plasma concentration, Average ([2]; single oral 100 mg/kg, 10 h): 132.00
- Plasma concentration, Average ([2]; single oral 100 mg/kg, 12 h): 110.00
- Plasma concentration, Average ([2]; single oral 100 mg/kg, 14 h): 97.00
- Plasma concentration, Average ([2]; single oral 100 mg/kg, 16 h): 81.00
- Plasma concentration, Average ([2]; single oral 100 mg/kg, 18 h): 78.00
- Plasma concentration, Average ([2]; single oral 100 mg/kg, 20 h): 67.00
- Plasma concentration, Average ([2]; single oral 100 mg/kg, 22 h): 52.00
- Plasma concentration, Average ([2]; single oral 100 mg/kg, 24 h): 35.00
- Plasma concentration, Average ([2]; single oral 150 mg/kg, 18 h): 85.00
- Plasma concentration, Average ([2]; single oral 150 mg/kg, 20 h): 76.00
- Plasma concentration, Average ([2]; single oral 150 mg/kg, 22 h): 63.00
- Plasma concentration, Average ([2]; single oral 150 mg/kg, 24 h): 42.00
- Efficacy in BALB/C mouse model of pulmonary tuberculosis, values of mice 1-6 (M. tuberculosis H37Rv [3]; Fig 4C, group dose 30): 3500000 and 3600000 and 2100000 and 2300000 and 3900000 and 3400000
- Efficacy in BALB/C mouse model of pulmonary tuberculosis, Average (M. tuberculosis H37Rv [3]; Fig 4C, group dose 30, 6 mice): 3133333
- Efficacy in BALB/C mouse model of pulmonary tuberculosis, Average (M. tuberculosis H37Rv [3]; Fig 4C, group dose 100, 6 mice): 550000
- bacterial burden in the lungs compared to control group (M. tuberculosis H37Rv [3]; mouse, in vivo, po): significantly reduced
- growth of M. tuberculosis in macrophages (CFU) (XDR M. tuberculosis): significantly inhibited the growth
- RFU/200 μl (replicates1-3), single values (M. tuberculosis H37Rv [4]; drug conc. 0.39): 54850 RFU/200 μl and 54820 RFU/200 μl and 52200 RFU/200 μl and 52110 RFU/200 μl and 58720 RFU/200 μl and 54260 RFU/200 μl and 54210 RFU/200 μl and 54470 RFU/200 μl and 54870 RFU/200 μl
- RFU/ml (×104) (M. tuberculosis H37Rv [4]; drug conc. 0.39): 27.3 RFU/ml (×104)
- RFU/200 μl (average) (M. tuberculosis H37Rv [4]; drug conc. 0.39, average of each replicate set): 54343 RFU/200 μl and 54313 RFU/200 μl and 54847 RFU/200 μl
- RFU/200 μl (replicates1-3), single values (M. tuberculosis H37Rv [4]; drug conc. 0.78): 20330 RFU/200 μl and 20390 RFU/200 μl and 21500 RFU/200 μl and 21380 RFU/200 μl and 21640 RFU/200 μl and 20670 RFU/200 μl and 20960 RFU/200 μl and 20360 RFU/200 μl and 20370 RFU/200 μl
- RFU/ml (×104) (M. tuberculosis H37Rv [4]; drug conc. 0.78): 10.4 RFU/ml (×104)
- RFU/200 μl (average) (M. tuberculosis H37Rv [4]; drug conc. 0.78, average of each replicate set): 21507 RFU/200 μl and 20663 RFU/200 μl and 20363 RFU/200 μl
- RFU/200 μl (replicates1-3), single values (M. tuberculosis H37Rv [4]; drug conc. 1.56): 8330 RFU/200 μl (2×) and 8470 RFU/200 μl and 8750 RFU/200 μl and 8670 RFU/200 μl and 8690 RFU/200 μl and 8240 RFU/200 μl and 8320 RFU/200 μl and 8390 RFU/200 μl
- RFU/ml (×104) (M. tuberculosis H37Rv [4]; drug conc. 1.56): 4.2 RFU/ml (×104)
- RFU/200 μl (average) (M. tuberculosis H37Rv [4]; drug conc. 1.56, average of each replicate set): 8703 RFU/200 μl and 8297 RFU/200 μl and 8397 RFU/200 μl
- concentration with significant antitubercular effect (M. tuberculosis H37Rv [4]; fluorescence-based assay): 1.56 µg/mL and 0.78 µg/mL
- Deaths of mice, Days after dosing 0 ([5]; Dose 500 mg/kg): 0
- Deaths of mice, Days after dosing 1 ([5]; Dose 500 mg/kg): 0
- Deaths of mice, Days after dosing 2 ([5]; Dose 500 mg/kg): 0
- Deaths of mice, Days after dosing 3 ([5]; Dose 500 mg/kg): 0
- Deaths of mice, Days after dosing 4 ([5]; Dose 500 mg/kg): 0
- Deaths of mice, Days after dosing 5 ([5]; Dose 500 mg/kg): 0
- Deaths of mice, Days after dosing 6 ([5]; Dose 500 mg/kg): 0
- Deaths of mice, Days after dosing 7 ([5]; Dose 500 mg/kg): 0
- Deaths of mice, Days after dosing 8 ([5]; Dose 500 mg/kg): 0
- Deaths of mice, Days after dosing 9 ([5]; Dose 500 mg/kg): 0
- Deaths of mice, Days after dosing 10 ([5]; Dose 500 mg/kg): 0
- Deaths of mice, Days after dosing 11 ([5]; Dose 500 mg/kg): 0
- Deaths of mice, Days after dosing 12 ([5]; Dose 500 mg/kg): 0
- Deaths of mice, Days after dosing 13 ([5]; Dose 500 mg/kg): 0
- Deaths of mice, Days after dosing 14 ([5]; Dose 500 mg/kg): 0
- Deaths of mice, Days after dosing 0 ([5]; Dose 1000 mg/kg): 0
- Deaths of mice, Days after dosing 1 ([5]; Dose 1000 mg/kg): 0
- Deaths of mice, Days after dosing 2 ([5]; Dose 1000 mg/kg): 0
- Deaths of mice, Days after dosing 3 ([5]; Dose 1000 mg/kg): 0
- Deaths of mice, Days after dosing 4 ([5]; Dose 1000 mg/kg): 0
- Deaths of mice, Days after dosing 5 ([5]; Dose 1000 mg/kg): 0
- Deaths of mice, Days after dosing 6 ([5]; Dose 1000 mg/kg): 0
- Deaths of mice, Days after dosing 7 ([5]; Dose 1000 mg/kg): 0
- Deaths of mice, Days after dosing 8 ([5]; Dose 1000 mg/kg): 0
- Deaths of mice, Days after dosing 9 ([5]; Dose 1000 mg/kg): 0
- Deaths of mice, Days after dosing 10 ([5]; Dose 1000 mg/kg): 0
- Deaths of mice, Days after dosing 11 ([5]; Dose 1000 mg/kg): 0
- Deaths of mice, Days after dosing 12 ([5]; Dose 1000 mg/kg): 0
- Deaths of mice, Days after dosing 13 ([5]; Dose 1000 mg/kg): 0
- Deaths of mice, Days after dosing 14 ([5]; Dose 1000 mg/kg): 0
- Deaths of mice, Days after dosing 0 ([5]; Dose 2000 mg/kg): 0
- Deaths of mice, Days after dosing 1 ([5]; Dose 2000 mg/kg): 0
- Deaths of mice, Days after dosing 2 ([5]; Dose 2000 mg/kg): 0
- Deaths of mice, Days after dosing 3 ([5]; Dose 2000 mg/kg): 0
- Deaths of mice, Days after dosing 4 ([5]; Dose 2000 mg/kg): 0
- Deaths of mice, Days after dosing 5 ([5]; Dose 2000 mg/kg): 0
- Deaths of mice, Days after dosing 6 ([5]; Dose 2000 mg/kg): 0
- Deaths of mice, Days after dosing 7 ([5]; Dose 2000 mg/kg): 0
- Deaths of mice, Days after dosing 8 ([5]; Dose 2000 mg/kg): 0
- Deaths of mice, Days after dosing 9 ([5]; Dose 2000 mg/kg): 0
- Deaths of mice, Days after dosing 10 ([5]; Dose 2000 mg/kg): 0
- Deaths of mice, Days after dosing 11 ([5]; Dose 2000 mg/kg): 0
- Deaths of mice, Days after dosing 12 ([5]; Dose 2000 mg/kg): 0
- Deaths of mice, Days after dosing 13 ([5]; Dose 2000 mg/kg): 0
- Deaths of mice, Days after dosing 14 ([5]; Dose 2000 mg/kg): 0
